Laboratory results reported in PubChem BioAssay AID248 (DTP/NCI, 2004).
Values joined by “and” are separate entries in the source; they are usually repeats but may differ in a detail not shown here. Identical values can stand only once. Toxic doses and inconclusive results are not listed. No stated cut-off is given here; in the data, active means T/C of 150% or more; inactive means T/C below 125%.

Tested on: L1210 leukemia ip in BDF1 mice, survival T/C
Experiment: NCI In Vivo Anticancer Drug Screen. Data for tumor model L1210 Leukemia (intraperitoneal) in B6D2F1 (BDF1) mice
Conditions: endpoint: mean survival time, higher = longer survival
Procedure, shortened: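 Transplanted-tumor mice were given test agent; controls received vehicle only. Survival readings from the two groups were divided (treated over control).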

[1] = dose: 100.0 mg/kg/injection, schedule: Q04DX003 (ip), vehicle: saline with Tween-80
[2] = dose: 75.0 mg/kg/injection, schedule: Q01DX001 (ip), vehicle: saline
[3] = dose: 150.0 mg/kg/injection, schedule: Q01DX001 (ip), vehicle: saline
[4] = dose: 100.0 mg/kg/injection, schedule: Q04DX003 (ip), vehicle: Klucel (hydroxypropylcellulose) (HPC)
[5] = dose: 200.0 mg/kg/injection, schedule: Q04DX003 (ip), vehicle: Klucel (hydroxypropylcellulose) (HPC)
[6] = dose: 12.5 mg/kg/injection, schedule: Q04DX003 (ip), vehicle: saline
[7] = dose: 25.0 mg/kg/injection, schedule: Q04DX003 (ip), vehicle: saline
[8] = dose: 100.0 mg/kg/injection, schedule: Q01DX009 (ip), vehicle: Klucel (hydroxypropylcellulose) (HPC)
[9] = dose: 200.0 mg/kg/injection, schedule: Q01DX009 (ip), vehicle: Klucel (hydroxypropylcellulose) (HPC)
[10] = dose: 400.0 mg/kg/injection, schedule: Q01DX009 (ip), vehicle: Klucel (hydroxypropylcellulose) (HPC)
[11] = dose: 100.0 mg/kg/injection, schedule: Q04DX002 (ip), vehicle: saline
[12] = dose: 200.0 mg/kg/injection, schedule: Q04DX002 (ip), vehicle: saline
[13] = dose: 400.0 mg/kg/injection, schedule: Q04DX002 (ip), vehicle: saline
[14] = dose: 400.0 mg/kg/injection, schedule: Q04DX003 (ip), vehicle: Klucel (hydroxypropylcellulose) (HPC)
[15] = dose: 100.0 mg/kg/injection, schedule: Q01DX001 (ip), vehicle: Klucel (hydroxypropylcellulose) (HPC)
[16] = dose: 200.0 mg/kg/injection, schedule: Q01DX001 (ip), vehicle: Klucel (hydroxypropylcellulose) (HPC)
[17] = dose: 400.0 mg/kg/injection, schedule: Q01DX001 (ip), vehicle: Klucel (hydroxypropylcellulose) (HPC)
[18] = dose: 100.0 mg/kg/injection, schedule: Q04DX002 (ip), vehicle: Klucel (hydroxypropylcellulose) (HPC)
[19] = dose: 200.0 mg/kg/injection, schedule: Q04DX002 (ip), vehicle: Klucel (hydroxypropylcellulose) (HPC)
[20] = dose: 400.0 mg/kg/injection, schedule: Q04DX002 (ip), vehicle: Klucel (hydroxypropylcellulose) (HPC)

Measured: T/C

CC/C(=C(\CC)c1ccc(OCC(=O)N(CCCl)CCCl)cc1)c1ccc(OCC(=O)N(CCCl)CCCl)cc1
inactive: dose: 5.0 mg/kg/injection, schedule: Q04DX002 (ip), vehicle: saline 105 % of control | dose: 10.0 mg/kg/injection, schedule: Q04DX002 (ip), vehicle: saline 97 % of control | dose: 20.0 mg/kg/injection, schedule: Q04DX002 (ip), vehicle: saline 94 % of control

COC(=O)NC1CCCCC1I (centres undefined)
inactive: dose: 100.0 mg/kg/injection, schedule: Q01DX009 (ip), vehicle: saline with Tween-80 89 % of control | [1] 95 % of control | dose: 200.0 mg/kg/injection, schedule: Q01DX009 (ip), vehicle: saline with Tween-80 101 % of control | dose: 200.0 mg/kg/injection, schedule: Q04DX003 (ip), vehicle: saline with Tween-80 98 % of control | dose: 400.0 mg/kg/injection, schedule: Q01DX009 (ip), vehicle: saline with Tween-80 96 % of control | dose: 400.0 mg/kg/injection, schedule: Q04DX003 (ip), vehicle: saline with Tween-80 93 % of control

C=CCC1(C(C)CCC)C(=O)NC(=S)NC1=O (centres undefined)
inactive: [2] 100 % of control | [3] 98 % of control | dose: 300.0 mg/kg/injection, schedule: Q01DX001 (ip), vehicle: saline 90 % of control

O=C1CC(c2ccccc2)C(c2ccccc2)C(=O)N1 (centres undefined)
inactive: [2] 90 % of control | [3] 90 % of control

Cn1cnc2[nH]c(Cl)nc(=S)c21
inactive: dose: 100.0 mg/kg/injection, schedule: Q01DX001 (ip), vehicle: saline 95 % of control | dose: 200.0 mg/kg/injection, schedule: Q01DX001 (ip), vehicle: saline 92 % of control | dose: 400.0 mg/kg/injection, schedule: Q01DX001 (ip), vehicle: saline 95 % of control

CNCCC(=O)c1ccccc1
inactive: [4] 99 % of control | [5] 99 % of control

CCN(CC)CC(=O)NCC(CCN1CCCCC1)(Cc1cccc2ccccc12)C(C)C (centres undefined)
inactive: [6] 106 % of control | [7] 98 % of control | dose: 50.0 mg/kg/injection, schedule: Q04DX003 (ip), vehicle: saline 97 % of control

Nc1nccc(Cl)n1
inactive: dose: 12.5 mg/kg/injection, schedule: Q01DX009 (ip), vehicle: saline with Tween-80 89 % of control | dose: 25.0 mg/kg/injection, schedule: Q01DX009 (ip), vehicle: saline with Tween-80 92 % of control | dose: 50.0 mg/kg/injection, schedule: Q01DX009 (ip), vehicle: saline with Tween-80 92 % of control

CC(=O)[O][Hg][c]1c(N)c(C)cc(C)c1F
inactive: dose: 2.5 mg/kg/injection, schedule: Q01DX009 (ip), vehicle: saline 91 % of control | dose: 5.0 mg/kg/injection, schedule: Q01DX009 (ip), vehicle: saline 95 % of control | dose: 6.25 mg/kg/injection, schedule: Q04DX003 (ip), vehicle: saline 101 % of control | dose: 10.0 mg/kg/injection, schedule: Q01DX009 (ip), vehicle: saline 98 % of control | [6] 91 % of control | [7] 94 % of control and 100 % of control | dose: 100.0 mg/kg/injection, schedule: Q04DX003 (ip), vehicle: saline 95 % of control

O=C(Nc1nc2ccccc2s1)c1ccc(C(=O)Nc2nc3ccccc3s2)cc1
inactive: dose: 100.0 mg/kg/injection, schedule: Q01DX001 (ip), vehicle: other 93 % of control | dose: 200.0 mg/kg/injection, schedule: Q01DX001 (ip), vehicle: other 90 % of control | dose: 400.0 mg/kg/injection, schedule: Q01DX001 (ip), vehicle: other 91 % of control

O=C(NCCCCCCNC(=O)Nc1cccc2ccccc12)Nc1cccc2ccccc12
inactive: [8] 97 % of control | [9] 103 % of control | [10] 92 % of control

NN=C(NN)NN
inactive: [11] 98 % of control | [12] 104 % of control | [13] 104 % of control

CC(C(OC(=O)Nc1ccc(Cl)c(Cl)c1)c1ccc(F)cc1)C(O)(C(F)(F)F)C(F)(F)F (centres undefined)
inactive: [8] 93 % of control | [9] 93 % of control | [10] 91 % of control

CC(=O)NOCc1ccc(Cl)cc1
inactive: [4] 100 % of control | [5] 95 % of control | [14] 95 % of control

CC(C)=C1C(=O)ON(c2ccccc2)C1=O
inactive: dose: 50.0 mg/kg/injection, schedule: Q01DX001 (ip), vehicle: Klucel (hydroxypropylcellulose) (HPC) 100 % of control | [15] 100 % of control | [4] 105 % of control | [16] 105 % of control | [5] 110 % of control | [17] 104 % of control | [14] 105 % of control

CCCCCCCCCCCCCCCCNS(=O)(=O)c1ccc(Br)cc1
inactive: [15] 96 % of control | [4] 91 % of control | [16] 93 % of control | [5] 95 % of control | [17] 96 % of control | [14] 103 % of control

S=C(S)N1CCOCC1.[Cu+2]
inactive: dose: 50.0 mg/kg/injection, schedule: Q01DX001 (ip), vehicle: carboxymethylcellulose (CMC) 88 % of control | dose: 100.0 mg/kg/injection, schedule: Q01DX001 (ip), vehicle: carboxymethylcellulose (CMC) 107 % of control

C[N+](C)(CC(=O)Nc1ccc(Cl)c(C(F)(F)F)c1)Cc1ccc(Cl)cc1
inactive: [1] 100 % of control

CCOC(=O)c1cn(C2OC(COC(=O)c3ccccc3)C(OC(=O)c3ccccc3)C2OC(=O)c2ccccc2)c(=O)nc1Nc1ccccc1Br (centres undefined)
inactive: dose: 100.0 mg/kg/injection, schedule: Q01DX005 (ip), vehicle: saline 97 % of control | dose: 200.0 mg/kg/injection, schedule: Q01DX005 (ip), vehicle: saline 97 % of control

C[C@@H]1CC2=CC(=O)C=C[C@]2(C)[C@H]2CC[C@@]3(C)[C@@H](CC[C@]3(C)O)[C@H]12
inactive: dose: 100.0 mg/kg/injection, schedule: Q01DX001 (sc), vehicle: steriod suspending solution 104 % of control | dose: 200.0 mg/kg/injection, schedule: Q01DX001 (sc), vehicle: steriod suspending solution 106 % of control | dose: 400.0 mg/kg/injection, schedule: Q01DX001 (sc), vehicle: steriod suspending solution 97 % of control

CCCCCOc1ccc(C=Nc2ccc(C)cc2)cc1
inactive: [8] 98 % of control | [9] 103 % of control

COc1c(-c2cc(C)nc(NC#N)n2)c(O)cc2occc12
inactive: [18] 95 % of control | [19] 95 % of control | [20] 98 % of control

Cc1ccc(C)c(Cn2cnc3c(=S)nc[nH]c32)c1
inactive: [18] 94 % of control | [19] 94 % of control | [20] 88 % of control

CCCCCCCCCCCCC(C)C(=O)O (centres undefined)
inactive: dose: 25.0 mg/kg/injection, schedule: Q04DX002 (ip), vehicle: Klucel (hydroxypropylcellulose) (HPC) 96 % of control | dose: 50.0 mg/kg/injection, schedule: Q04DX002 (ip), vehicle: Klucel (hydroxypropylcellulose) (HPC) 93 % of control | [8] 105 % of control | [18] 101 % of control | [9] 91 % of control | [19] 98 % of control | [10] 91 % of control | [20] 98 % of control

Cn1c(=O)c2ccc[n+]([O-])c2n(C)c1=O
inactive: [8] 101 % of control | [4] 103 % of control | [9] 108 % of control | [5] 96 % of control | [10] 105 % of control | [14] 107 % of control

c1ccc(C(c2ccccc2)n2cc[n+](C(c3ccccc3)c3ccccc3)c2)cc1
inactive: dose: 12.5 mg/kg/injection, schedule: Q04DX002 (ip), vehicle: gum acacia 96 % of control | dose: 25.0 mg/kg/injection, schedule: Q04DX002 (ip), vehicle: gum acacia 114 % of control

OCC1(O)OCC(O)C(O)C1O (centres undefined)
inactive: dose: 100.0 mg/kg/injection, schedule: Q01DX009 (ip), vehicle: saline 89 % of control | dose: 200.0 mg/kg/injection, schedule: Q01DX009 (ip), vehicle: saline 94 % of control | dose: 400.0 mg/kg/injection, schedule: Q01DX009 (ip), vehicle: saline 90 % of control | dose: 800.0 mg/kg/injection, schedule: Q01DX009 (ip), vehicle: saline 90 % of control

Nc1ccc(C(F)(F)F)cc1[N+](=O)[O-]
inactive: [11] 118 % of control | [12] 103 % of control | [13] 107 % of control
